Among the data in patent US11136317B2, “NADPH oxidase 4 inhibitors” (ACTELION PHARMACEUTICALS LTD, priority 2015, dated 2021) are IC50 values, retold here.

Structures are written as SMILES.

This assay deals with T1, human NOX4 (Homo sapiens, UniProt Q9NPH5).
T1 construct: The full-length human NOX4 (NM_016931.3) transcript was cloned; expressed in transfected cells
T1 sequence (Q9NPH5 1-578): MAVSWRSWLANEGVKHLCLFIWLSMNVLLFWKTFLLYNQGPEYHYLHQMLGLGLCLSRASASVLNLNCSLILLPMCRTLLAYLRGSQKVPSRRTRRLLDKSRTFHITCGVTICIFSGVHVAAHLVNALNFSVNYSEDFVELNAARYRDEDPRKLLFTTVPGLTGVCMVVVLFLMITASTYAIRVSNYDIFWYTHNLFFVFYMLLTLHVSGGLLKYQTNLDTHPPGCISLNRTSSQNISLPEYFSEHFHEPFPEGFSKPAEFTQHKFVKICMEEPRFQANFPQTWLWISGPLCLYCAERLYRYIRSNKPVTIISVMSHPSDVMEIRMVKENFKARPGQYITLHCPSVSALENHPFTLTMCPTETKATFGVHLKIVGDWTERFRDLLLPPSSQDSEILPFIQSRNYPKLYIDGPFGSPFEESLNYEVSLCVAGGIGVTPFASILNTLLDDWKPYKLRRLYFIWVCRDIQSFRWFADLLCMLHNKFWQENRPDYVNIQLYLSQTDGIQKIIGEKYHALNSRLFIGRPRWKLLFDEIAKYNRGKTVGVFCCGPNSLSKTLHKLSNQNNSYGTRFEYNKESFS
T1 sequence (P13498 1-195 partner): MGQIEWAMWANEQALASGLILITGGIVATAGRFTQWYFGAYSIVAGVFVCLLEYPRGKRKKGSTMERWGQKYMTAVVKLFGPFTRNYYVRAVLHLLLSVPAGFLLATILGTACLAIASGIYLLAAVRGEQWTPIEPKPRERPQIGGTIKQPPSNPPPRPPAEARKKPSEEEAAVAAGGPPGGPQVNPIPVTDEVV
The assay can be described thus: Amplex Red activity assay (cellular H2O2 formation in hNOX4 T-REx-293 cells). In kind it is cell-based. As to conditions: tet-induced 24 h, extracellular H2O2 by Amplex Red, 60 min 25° C., geometric mean if determined several times. How it is done:
The nucleotide sequence and the amino acid sequence for the human NOX4 (Entrez Gene ID 50507) is known in the art and are published. The potency and efficacy of the compounds of Formula (I) are assessed for their potential to inhibit the formation of ROS in a cellular assay.
The full-length human NOX4 (NM_016931.3) transcript was cloned into the pDONR™221 vector (Life Technologies™) in order to generate, by site-specific integration according to the recommendation of the manufacturer (Life Technologies™), a recombinant pJTI™ R4 DEST CMV-TO vector containing the NOX4 coding information controlled by tetracycline (tet) responsive tet-on cytomegalovirus promoter (hNOX4 pDEST).
Modified human embryonic kidney cells overexpressing a tet receptor (Jump-In™ T-REx™ HEK293; Life Technologies™) were transfected with the NOX4-containing tet-on vector (hNOX4 pDEST) to generate a stable recombinant cell pool (hNOX4 T-REx-293). hNOX4 T-REx-293 cells were cultured in DMEM containing 4.5 g/L glucose supplemented with 10% fetal calf serum, penicillin (100 U/mL), streptomycin (100 μg/mL), geneticin (1 mg/mL), and blasticidin (5 μg/mL) at 37° C. in air with 5% CO2. Human Nox4 expression was induced with tet (1 μg/mL) for 24 h and extracellular H2O2 was quantified using the Amplex Red reagent (Life Technologies™).
Compounds were prepared as 10 mM stock solution in DMSO vehicle, then diluted in 384-well plates using DMSO followed by a transfer of the dilutions into the assay plate. As a control, diphenylene iodonium was included at a final concentration of 10 μM. Compounds were tested at 10 concentrations in the range from 50 μM highest to 100 nM lowest.
Cellular H2O2 formation was measured using the Amplex Red reagent. […] Cells were seeded into 384-well clear bottom plates at a density of 20 000 cells per well in presence or absence of compounds. […] All wells contained 1.25% of DMSO. The plates were kept at 25° C. for 60 min. The amount of produced resorufin was detected with the Synergy™ Mx microplate reader (BioTek) with excitation and emission wavelengths set to 550 nm and 600 nm, respectively. Fluorescence was measured for each well and the fluorescence at 600 nm wavelength was compared to the fluorescence of the vehicle in place of compound. Inhibitory activities of example compounds were determined by calculating the IC50 value (the concentration of compound needed to inhibit 50% of the enzyme activity). The calculated IC50 values may fluctuate depending on the daily cellular assay performance. Fluctuations of this kind are known to those skilled in the art.
As usually defined, the IC50 is the concentration that inhibits the measured activity by half. Take `CCOCC1CCCN1c1nc2cc(NC(=O)c3ccc4c(c3)CCO4)ccc2o1` (stereo not shown) [Example 51, 2,3-Dihydro-benzofuran-5-carboxylic acid [2-(2-ethoxymethyl-pyrrolidin-1-yl)-benzooxazol-5-yl]-amide]: the IC50 worked out at 4570 nM. Then `CN(CC1(F)COC1)c1nc2cc(NC(=O)c3ccc4c(c3)CCO4)ccc2o1` [Example 52, 2,3-Dihydro-benzofuran-5-carboxylic acid {2-[(3-fluoro-oxetan-3-ylmethyl)-methyl-amino]-benzooxazol-5-yl}-amide], with 899 nM; and `O=C(Nc1ccc2oc(N3CCN(C4COC4)CC3)nc2c1)c1ccc2c(c1)CCO2` [Example 53, 2,3-Dihydro-benzofuran-5-carboxylic acid [2-(4-oxetan-3-yl-piperazin-1-yl)-benzooxazol-5-yl]-amide], with 913 nM. Then `CN(c1nc2cc(NC(=O)c3ccc4c(c3)CCO4)ccc2o1)C1CCN(C2COC2)CC1` [Example 54, 2,3-Dihydro-benzofuran-5-carboxylic acid {2-[methyl-(1-oxetan-3-yl-piperidin-4-yl)-amino]-benzooxazol-5-yl}-amide], with 2910 nM; and `O=C(Nc1ccc2oc(N3CCCC4(COC4)C3)nc2c1)c1ccc2c(c1)CCO2` [Example 55, 2,3-Dihydro-benzofuran-5-carboxylic acid [2-(2-oxa-6-aza-spiro[3.5]non-6-yl)-benzooxazol-5-yl]-amide], with 400 nM; and `CN(CC1COC1)c1nc2cc(NC(=O)c3ccc4c(c3)CCO4)ccc2o1` [Example 56, 2,3-Dihydro-benzofuran-5-carboxylic acid [2-(methyl-oxetan-3-ylmethyl-amino)-benzooxazol-5-yl]-amide], with 906 nM. As to `CN(c1nc2cc(NC(=O)c3ccc4c(c3)CCO4)ccc2o1)C1COC1` [Example 57, 2,3-Dihydro-benzofuran-5-carboxylic acid [2-(methyl-oxetan-3-yl-amino)-benzooxazol-5-yl]-amide], the IC50 turned out to be 681 nM.

For the molecule `COCC1CCCN1c1nc2cc(NC(=O)c3ccc4c(c3)CCO4)ccc2o1` (stereo not shown) [Example 58, 2,3-Dihydro-benzofuran-5-carboxylic acid [2-(2-methoxymethyl-pyirolidin-1-yl)-benzooxazol-5-yl]-amide], the IC50 was found to be 1330 nM.

Consider `COC1CCCN(c2nc3cc(NC(=O)c4ccc5c(c4)CCO5)ccc3o2)C1` (stereo not shown) [Example 59, 2,3-Dihydro-benzofuran-5-carboxylic acid [2-(3-methoxy-piperidin-1-yl)-benzooxazol-5-yl]-amide], for which the IC50 was 731 nM.

As to `CN(C)CC1CCN(c2nc3cc(NC(=O)c4ccc5c(c4)CCO5)ccc3o2)C1` (stereo not shown) [Example 60, 2,3-Dihydro-benzofuran-5-carboxylic acid [2-(3-dimethylaminomethyl-pyrrolidin-1-yl)-benzooxazol-5-yl]-amide], the 50% inhibitory concentration (IC50) stood at 1670 nM. `CN(C)CC1CCCN1c1nc2cc(NC(=O)c3ccc4c(c3)CCO4)ccc2o1` (stereo not shown) [Example 61, 2,3-Dihydro-benzofuran-5-carboxylic acid [2-(2-dimethylaminomethyl-pyrrolidin-1-yl)-benzooxazol-5-yl]-amide]: the IC50 came out at 5240 nM.

As to `O=C(Nc1ccc2oc(N(C3CC3)C3COC3)nc2c1)c1ccc2c(c1)CCO2` [Example 63, 2,3-Dihydro-benzofuran-5-carboxylic acid [2-(cyclopropyl-oxetan-3-yl-amino)-benzooxazol-5-yl]-amide], the IC50 turned out to be 359 nM. Then `O=C(Nc1ccc2oc(N3CC(N4CCCC4)C3)nc2c1)c1ccc2c(c1)CCO2` [Example 64, 2,3-Dihydro-benzofuran-5-carboxylic acid [2-(3-pyrrolidin-1-yl-azetidin-1-yl)-benzooxazol-5-yl]-amide], with 2130 nM. The value for `CC(C)(O)C1CN(c2nc3cc(NC(=O)c4ccc5c(c4)CCO5)ccc3o2)C1` [Example 65, 2,3-Dihydro-benzofuran-5-carboxylic acid {2-[3-(1-hydroxy-1-methyl-ethyl)-azetidin-1-yl]-benzooxazol-5-yl}-amide] was 851 nM; that for `CN(C)CC1CN(c2nc3cc(NC(=O)c4ccc5c(c4)CCO5)ccc3o2)C1` [Example 66, 2,3-Dihydro-benzofuran-5-carboxylic acid [2-(3-dimethylaminomethyl-azetidin-1-yl)-benzooxazol-5-yl]-amide] was 4170 nM.

`CN1CCC2(CC1)CCN2c1nc2cc(NC(=O)c3ccc4c(c3)CCO4)ccc2o1` [Example 67, 2,3-Dihydro-benzofuran-5-carboxylic acid [2-(7-methyl-1,7-diaza-spiro[3.5]non-1-yl)-benzooxazol-5-yl]-amide]: the IC50 is 3080 nM. Then `CN1CCC2(CC1)CN(c1nc3cc(NC(=O)c4ccc5c(c4)CCO5)ccc3o1)C2` [Example 68, 2,3-Dihydro-benzofuran-5-carboxylic acid [2-(7-methyl-2,7-diaza-spiro[3.5]non-2-yl)-benzooxazol-5-yl]-amide], with 1790 nM; and `CN(C)C1CN(c2nc3cc(NC(=O)c4ccc5c(c4)CCO5)ccc3o2)C1` [Example 69, 2,3-Dihydro-benzofuran-5-carboxylic acid [2-(3-dimethylamino-azetidin-1-yl)-benzooxazol-5-yl]-amide], with 1930 nM; and `O=C(Nc1ccc2oc(N3CC4(C3)CS(=O)(=O)C4)nc2c1)c1ccc2c(c1)CCO2` [Example 70, 2,3-Dihydro-benzofuran-5-carboxylic acid [2-(2,2-dioxo-2l6-thia-6-aza-spiro[3.3]hept-6-yl)-benzooxazol-5-yl]-amide], with 889 nM.

Consider `O=C(Nc1ccc2oc(N3CCC34CCOC4)nc2c1)c1ccc2c(c1)CCO2` (stereo not shown) [Example 71, 2,3-Dihydro-benzofuran-5-carboxylic acid [2-(6-oxa-1-aza-spiro[3.4]oct-1-yl)-benzooxazol-5-yl]-amide], for which the IC50 was determined as 336 nM.

With `O=C(Nc1ccc2oc(N3CC4(CCS4(=O)=O)C3)nc2c1)c1ccc2c(c1)CCO2` [Example 72, 2,3-Dihydro-benzofuran-5-carboxylic acid [2(1,1-dioxo-1l6-thia-6-aza-spiro[3.3]hept-6-yl)-benzooxazol-5-yl]-amide], the half-inhibitory concentration (IC50) came out at 524 nM. In the case of `CN(C)C1(C)CN(c2nc3cc(NC(=O)c4ccc5c(c4)CCO5)ccc3o2)C1` [Example 73, 2,3-Dihydro-benzofuran-5-carboxylic acid [2-(3-dimethylamino-3-methyl-azetidin-1-yl)-benzooxazol-5-yl]-amide], the IC50 is 4100 nM.

Consider `O=C(Nc1ccc2oc(N3CC4(CCOC4)C3)nc2c1)c1ccc2c(c1)CCO2` [Example 74, 2,3-Dihydro-benzofuran-5-carboxylic acid [2-(6-oxa-2-aza-spiro[3.4]oct-2-yl)-benzooxazol-5-yl]-amide], for which the IC50 worked out at 1080 nM. On to `CN1CCN(c2nc3cc(C(=O)Nc4ccc5c(c4)CCO5)ccc3o2)CC1` [Example 75, 2-(4-Methyl-piperazin-1-yl)-benzooxazole-5-carboxylic acid (2,3-dihydro-benzofuran-5-yl)-amide], for which the half-maximal inhibitory concentration (IC50) came out at 421 nM. For `O=C(Nc1ccc2c(c1)CCO2)c1ccc2oc(N3CCCCC3)nc2c1` [Example 76, 2-Piperidin-1-yl-benzooxazole-5-carboxylic acid (2,3-dihydro-benzofuran-5-yl)-amide], the IC50 is 414 nM.
